What all share (format): binding
Assay [1] addresses T1, kinases (KINOMEscan panel) (Homo sapiens, UniProt O15146).
T1 sequence (O15146 24-869): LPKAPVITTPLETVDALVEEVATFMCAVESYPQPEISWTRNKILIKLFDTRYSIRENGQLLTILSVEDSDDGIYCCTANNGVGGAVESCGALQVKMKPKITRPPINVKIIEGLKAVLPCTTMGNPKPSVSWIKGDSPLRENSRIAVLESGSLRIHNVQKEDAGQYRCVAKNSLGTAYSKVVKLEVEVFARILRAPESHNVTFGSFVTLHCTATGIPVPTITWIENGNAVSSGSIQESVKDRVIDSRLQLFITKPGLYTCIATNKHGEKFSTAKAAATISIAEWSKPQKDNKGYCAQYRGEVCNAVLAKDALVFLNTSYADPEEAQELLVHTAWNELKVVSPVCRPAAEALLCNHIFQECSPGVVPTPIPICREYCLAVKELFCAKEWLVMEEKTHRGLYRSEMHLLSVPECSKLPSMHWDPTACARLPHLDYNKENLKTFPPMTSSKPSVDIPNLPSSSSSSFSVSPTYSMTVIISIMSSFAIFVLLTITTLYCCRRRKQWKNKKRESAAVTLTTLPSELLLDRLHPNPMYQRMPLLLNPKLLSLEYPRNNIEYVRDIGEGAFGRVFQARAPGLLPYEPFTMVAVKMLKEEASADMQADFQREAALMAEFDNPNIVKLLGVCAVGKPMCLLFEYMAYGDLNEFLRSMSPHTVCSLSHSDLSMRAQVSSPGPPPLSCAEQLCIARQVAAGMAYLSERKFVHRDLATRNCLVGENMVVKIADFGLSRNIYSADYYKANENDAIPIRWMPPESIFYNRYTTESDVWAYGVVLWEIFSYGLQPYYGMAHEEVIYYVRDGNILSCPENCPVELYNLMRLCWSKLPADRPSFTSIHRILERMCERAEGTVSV
The settings on record: MUSK; NEW KINOMEscan.

The target of assay [2] is kinases (KINOMEscan panel) (Homo sapiens, UniProt P08069). The settings on record: kinase IGF1R; NEW KINOMEscan.
In assay [3] the target is kinases (KINOMEscan panel) (Homo sapiens, UniProt P10721). As to conditions: NEW KINOMEscan.
Assay [4] has as its target T2, kinases (KINOMEscan panel) (Homo sapiens, UniProt P51813).
T2 sequence (P51813 1-675): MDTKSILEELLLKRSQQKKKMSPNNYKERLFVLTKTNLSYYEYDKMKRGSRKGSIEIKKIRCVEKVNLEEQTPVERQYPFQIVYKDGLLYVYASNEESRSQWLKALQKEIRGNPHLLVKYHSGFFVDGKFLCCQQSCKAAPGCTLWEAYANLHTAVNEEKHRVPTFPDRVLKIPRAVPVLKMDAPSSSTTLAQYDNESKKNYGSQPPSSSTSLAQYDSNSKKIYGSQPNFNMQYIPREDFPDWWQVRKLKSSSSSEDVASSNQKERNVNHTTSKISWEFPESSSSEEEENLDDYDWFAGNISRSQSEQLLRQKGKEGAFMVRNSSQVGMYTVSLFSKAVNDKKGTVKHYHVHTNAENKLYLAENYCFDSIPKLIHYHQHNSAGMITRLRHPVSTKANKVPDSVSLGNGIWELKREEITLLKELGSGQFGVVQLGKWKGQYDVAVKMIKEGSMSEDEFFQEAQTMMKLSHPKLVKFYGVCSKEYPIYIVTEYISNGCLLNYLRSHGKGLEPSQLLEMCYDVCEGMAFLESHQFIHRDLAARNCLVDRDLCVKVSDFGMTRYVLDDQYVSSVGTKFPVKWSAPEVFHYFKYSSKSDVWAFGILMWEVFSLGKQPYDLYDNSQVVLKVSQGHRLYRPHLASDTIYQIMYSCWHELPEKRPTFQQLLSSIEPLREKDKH
The settings on record: BMX; NEW KINOMEscan.

Assay [5] deals with kinases (KINOMEscan panel) (Homo sapiens, UniProt Q05655). The settings on record: kinase PRKCD; NEW KINOMEscan.
The target in assay [6] is kinases (KINOMEscan panel) (Homo sapiens, UniProt Q16512). As to conditions: NEW KINOMEscan.
Assay [7] concerns the target T3, kinases (KINOMEscan panel) (Homo sapiens, UniProt Q8TD19).
T3 sequence (Q8TD19 1-979): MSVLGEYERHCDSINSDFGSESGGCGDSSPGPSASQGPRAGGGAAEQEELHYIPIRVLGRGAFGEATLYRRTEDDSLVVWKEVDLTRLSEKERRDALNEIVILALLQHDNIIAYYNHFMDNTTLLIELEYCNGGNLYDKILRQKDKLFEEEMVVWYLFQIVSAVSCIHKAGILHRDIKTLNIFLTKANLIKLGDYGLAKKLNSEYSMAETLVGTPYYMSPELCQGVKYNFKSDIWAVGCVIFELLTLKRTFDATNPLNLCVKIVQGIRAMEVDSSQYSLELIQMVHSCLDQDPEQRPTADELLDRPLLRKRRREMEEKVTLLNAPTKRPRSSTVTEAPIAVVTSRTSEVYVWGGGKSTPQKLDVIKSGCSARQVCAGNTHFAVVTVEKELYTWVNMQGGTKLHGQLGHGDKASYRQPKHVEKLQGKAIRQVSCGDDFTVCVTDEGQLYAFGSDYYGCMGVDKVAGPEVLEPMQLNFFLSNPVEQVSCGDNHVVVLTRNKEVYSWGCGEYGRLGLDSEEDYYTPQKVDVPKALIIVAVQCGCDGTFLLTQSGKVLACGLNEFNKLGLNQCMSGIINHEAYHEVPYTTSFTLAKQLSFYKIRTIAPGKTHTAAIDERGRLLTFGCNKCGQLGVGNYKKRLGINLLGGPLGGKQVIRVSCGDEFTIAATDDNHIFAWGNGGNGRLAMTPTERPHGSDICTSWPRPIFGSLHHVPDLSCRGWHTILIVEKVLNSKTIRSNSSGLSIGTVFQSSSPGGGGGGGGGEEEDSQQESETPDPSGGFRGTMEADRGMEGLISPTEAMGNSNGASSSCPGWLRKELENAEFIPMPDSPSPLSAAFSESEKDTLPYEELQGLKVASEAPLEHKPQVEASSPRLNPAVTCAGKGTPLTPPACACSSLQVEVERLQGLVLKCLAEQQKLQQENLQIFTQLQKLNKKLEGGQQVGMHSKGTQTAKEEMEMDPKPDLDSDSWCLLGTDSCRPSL
As to conditions: NEK9; NEW KINOMEscan.

The target of assay [8] is kinases (KINOMEscan panel) (Homo sapiens, UniProt Q96GD4). As to conditions: kinase AURKB; NEW KINOMEscan.

The structures appear in SMILES notation.

kinases (KINOMEscan panel) (Homo sapiens, UniProt P10721), sequence (P10721 26-976): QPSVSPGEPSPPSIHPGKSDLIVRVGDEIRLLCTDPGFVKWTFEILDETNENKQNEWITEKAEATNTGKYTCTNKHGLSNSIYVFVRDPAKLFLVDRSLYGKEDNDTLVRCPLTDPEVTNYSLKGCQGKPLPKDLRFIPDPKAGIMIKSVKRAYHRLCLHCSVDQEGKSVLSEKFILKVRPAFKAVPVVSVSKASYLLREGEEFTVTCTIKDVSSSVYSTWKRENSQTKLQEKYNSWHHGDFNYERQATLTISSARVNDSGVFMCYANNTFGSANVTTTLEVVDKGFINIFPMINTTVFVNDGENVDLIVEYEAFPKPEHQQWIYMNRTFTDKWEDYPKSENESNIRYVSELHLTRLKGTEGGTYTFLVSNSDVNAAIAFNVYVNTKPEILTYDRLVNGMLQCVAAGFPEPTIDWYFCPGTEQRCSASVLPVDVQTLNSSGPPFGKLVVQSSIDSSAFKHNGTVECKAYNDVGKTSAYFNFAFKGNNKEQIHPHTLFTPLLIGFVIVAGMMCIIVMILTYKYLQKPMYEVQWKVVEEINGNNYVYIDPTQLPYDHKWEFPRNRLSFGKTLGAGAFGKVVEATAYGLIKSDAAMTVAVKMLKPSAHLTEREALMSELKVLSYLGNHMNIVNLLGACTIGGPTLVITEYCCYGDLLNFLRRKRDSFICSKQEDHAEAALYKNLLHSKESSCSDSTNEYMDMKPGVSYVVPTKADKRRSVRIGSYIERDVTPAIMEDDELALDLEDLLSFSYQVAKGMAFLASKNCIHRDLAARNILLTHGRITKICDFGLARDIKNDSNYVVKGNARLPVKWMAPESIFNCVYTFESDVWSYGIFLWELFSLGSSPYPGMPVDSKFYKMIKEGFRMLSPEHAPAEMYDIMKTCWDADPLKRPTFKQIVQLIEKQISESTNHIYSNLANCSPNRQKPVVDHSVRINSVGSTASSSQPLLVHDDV
kinases (KINOMEscan panel) (Homo sapiens, UniProt P08069), sequence (P08069 31-1367): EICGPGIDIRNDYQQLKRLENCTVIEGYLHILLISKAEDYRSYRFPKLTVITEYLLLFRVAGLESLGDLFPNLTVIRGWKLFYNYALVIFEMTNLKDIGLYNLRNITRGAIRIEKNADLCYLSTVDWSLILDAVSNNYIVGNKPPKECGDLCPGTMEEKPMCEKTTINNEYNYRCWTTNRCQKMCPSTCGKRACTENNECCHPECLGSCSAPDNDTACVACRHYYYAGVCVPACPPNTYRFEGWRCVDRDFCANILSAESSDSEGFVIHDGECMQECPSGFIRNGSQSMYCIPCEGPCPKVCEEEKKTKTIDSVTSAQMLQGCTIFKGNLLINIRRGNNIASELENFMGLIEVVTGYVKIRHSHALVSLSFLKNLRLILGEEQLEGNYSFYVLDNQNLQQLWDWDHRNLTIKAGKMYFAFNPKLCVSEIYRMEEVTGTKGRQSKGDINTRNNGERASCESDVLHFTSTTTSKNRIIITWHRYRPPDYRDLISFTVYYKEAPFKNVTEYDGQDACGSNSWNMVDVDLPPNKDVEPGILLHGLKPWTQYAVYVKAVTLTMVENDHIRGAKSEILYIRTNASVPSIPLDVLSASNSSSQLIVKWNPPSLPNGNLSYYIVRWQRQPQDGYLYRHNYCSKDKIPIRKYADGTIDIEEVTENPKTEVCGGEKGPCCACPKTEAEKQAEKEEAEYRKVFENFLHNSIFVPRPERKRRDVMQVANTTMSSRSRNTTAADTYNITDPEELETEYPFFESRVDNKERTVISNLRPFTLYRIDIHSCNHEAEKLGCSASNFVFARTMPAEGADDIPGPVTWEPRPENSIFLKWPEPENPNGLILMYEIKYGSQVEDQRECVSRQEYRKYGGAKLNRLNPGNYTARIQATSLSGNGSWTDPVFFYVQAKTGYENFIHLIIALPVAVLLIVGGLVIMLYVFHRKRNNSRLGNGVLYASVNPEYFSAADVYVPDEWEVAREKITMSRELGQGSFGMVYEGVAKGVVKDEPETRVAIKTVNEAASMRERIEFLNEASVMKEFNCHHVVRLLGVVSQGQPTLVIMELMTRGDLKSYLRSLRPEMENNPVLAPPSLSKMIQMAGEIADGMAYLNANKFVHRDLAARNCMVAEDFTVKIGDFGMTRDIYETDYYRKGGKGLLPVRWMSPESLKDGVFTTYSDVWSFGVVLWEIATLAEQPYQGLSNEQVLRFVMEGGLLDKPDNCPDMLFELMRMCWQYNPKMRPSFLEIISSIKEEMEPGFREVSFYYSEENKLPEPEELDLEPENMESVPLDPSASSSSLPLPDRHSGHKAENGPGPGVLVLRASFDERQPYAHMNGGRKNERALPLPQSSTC
kinases (KINOMEscan panel) (Homo sapiens, UniProt Q16512), sequence (Q16512 whole entry): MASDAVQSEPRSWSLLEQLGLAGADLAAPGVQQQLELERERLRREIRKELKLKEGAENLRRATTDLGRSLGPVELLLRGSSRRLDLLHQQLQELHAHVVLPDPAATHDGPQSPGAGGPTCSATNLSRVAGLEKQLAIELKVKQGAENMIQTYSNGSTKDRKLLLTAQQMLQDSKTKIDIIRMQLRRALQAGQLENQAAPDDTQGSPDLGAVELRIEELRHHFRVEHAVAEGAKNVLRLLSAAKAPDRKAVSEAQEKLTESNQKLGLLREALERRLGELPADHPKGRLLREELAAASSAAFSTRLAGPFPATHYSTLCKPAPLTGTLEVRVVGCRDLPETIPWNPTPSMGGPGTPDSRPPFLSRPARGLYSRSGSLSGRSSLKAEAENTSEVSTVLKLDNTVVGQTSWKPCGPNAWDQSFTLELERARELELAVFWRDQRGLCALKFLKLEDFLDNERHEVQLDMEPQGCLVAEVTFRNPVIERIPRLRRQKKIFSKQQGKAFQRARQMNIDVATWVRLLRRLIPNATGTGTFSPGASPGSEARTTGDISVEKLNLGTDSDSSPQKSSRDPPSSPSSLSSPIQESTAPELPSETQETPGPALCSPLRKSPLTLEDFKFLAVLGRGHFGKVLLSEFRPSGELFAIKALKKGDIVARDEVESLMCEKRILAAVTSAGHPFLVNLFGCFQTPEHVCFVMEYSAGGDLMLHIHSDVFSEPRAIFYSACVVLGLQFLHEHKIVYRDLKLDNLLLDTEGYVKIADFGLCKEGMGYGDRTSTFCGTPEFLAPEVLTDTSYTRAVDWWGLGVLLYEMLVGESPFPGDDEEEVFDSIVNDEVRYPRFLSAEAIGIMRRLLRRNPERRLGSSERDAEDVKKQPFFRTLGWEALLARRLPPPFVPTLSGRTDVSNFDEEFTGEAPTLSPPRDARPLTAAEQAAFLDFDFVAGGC
kinases (KINOMEscan panel) (Homo sapiens, UniProt Q05655), sequence (Q05655 whole entry): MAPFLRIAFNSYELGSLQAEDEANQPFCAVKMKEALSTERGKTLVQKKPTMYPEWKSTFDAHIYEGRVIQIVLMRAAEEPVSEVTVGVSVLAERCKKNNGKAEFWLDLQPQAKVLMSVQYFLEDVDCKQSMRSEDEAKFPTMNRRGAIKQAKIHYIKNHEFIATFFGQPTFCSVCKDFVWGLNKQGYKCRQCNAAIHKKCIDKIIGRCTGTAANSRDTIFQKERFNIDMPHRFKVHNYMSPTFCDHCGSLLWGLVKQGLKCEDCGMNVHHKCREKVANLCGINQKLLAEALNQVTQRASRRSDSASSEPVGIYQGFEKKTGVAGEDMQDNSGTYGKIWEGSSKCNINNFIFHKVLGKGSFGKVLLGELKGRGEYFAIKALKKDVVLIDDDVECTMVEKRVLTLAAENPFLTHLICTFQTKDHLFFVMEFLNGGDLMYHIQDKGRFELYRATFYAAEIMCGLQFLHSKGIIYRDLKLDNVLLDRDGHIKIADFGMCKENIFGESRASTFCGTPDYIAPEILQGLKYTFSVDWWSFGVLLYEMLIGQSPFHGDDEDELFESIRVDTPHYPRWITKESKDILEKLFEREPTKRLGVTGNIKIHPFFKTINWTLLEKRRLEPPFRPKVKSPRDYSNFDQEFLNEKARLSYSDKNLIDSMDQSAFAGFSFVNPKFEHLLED
kinases (KINOMEscan panel) (Homo sapiens, UniProt Q96GD4), sequence (Q96GD4 whole entry): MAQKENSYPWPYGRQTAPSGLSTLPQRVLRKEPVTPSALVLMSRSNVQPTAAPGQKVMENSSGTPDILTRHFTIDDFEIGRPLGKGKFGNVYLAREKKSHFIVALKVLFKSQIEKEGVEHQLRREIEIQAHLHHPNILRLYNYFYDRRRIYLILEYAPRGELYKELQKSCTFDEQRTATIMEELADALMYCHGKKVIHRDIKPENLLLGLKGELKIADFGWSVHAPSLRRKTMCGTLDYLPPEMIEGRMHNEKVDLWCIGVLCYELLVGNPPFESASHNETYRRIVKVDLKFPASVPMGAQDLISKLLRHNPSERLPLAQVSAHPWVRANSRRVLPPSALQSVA

Consider `Cc1cccc(-c2nc(N(C)c3ccc4ncsc4c3)c3ccccc3n2)n1` [NK-161], for which the “KINOMEscan MUSK” value in assay [1] amounted to 0. Further, in assay [2], the “KINOMEscan IGF1R” value came out at 14. Moreover, in assay [3], the “KINOMEscan KIT-autoinhibited” value was found to be 0 and the “KINOMEscan KIT” value was 5. Further, the “KINOMEscan BMX” value in assay [4] came out at 6. For the same molecule, the “KINOMEscan PRKCD” value in assay [5] is listed as 16. Further, in assay [6], the “KINOMEscan PKN1” value was 0. The “KINOMEscan NEK9” value in assay [7] was determined as 0. Besides, the “KINOMEscan AURKB” value in assay [8] is recorded as 0.
Take `Cc1cccc(-c2nc(Nc3ccc4nn(C)cc4c3)c3ccccc3n2)n1` [NK167]: in assay [1], the “KINOMEscan MUSK” value was 2. Besides, the “KINOMEscan IGF1R” value in assay [2] is recorded as 0. In addition, in assay [3], the “KINOMEscan KIT-autoinhibited” value was 1 and the “KINOMEscan KIT” value is given as 8. Moreover, the “KINOMEscan BMX” value in assay [4] is listed as 0. Moreover, the “KINOMEscan PRKCD” value in assay [5] was determined as 21. Besides, the “KINOMEscan PKN1” value in assay [6] came to 0. In addition, in assay [7], the “KINOMEscan NEK9” value stood at 0. The “KINOMEscan AURKB” value in assay [8] amounted to 0.

For the origin of these results see article PMC9851200, “Multiparameter phenotypic screening for endogenous TFEB and TFE3 translocation identifies novel chemical series modulating lysosome function” (Autophagy, 2022).
